Measured values: patent US20240246969A1, “HETEROCYCLIC DERIVATIVES AS CAMKK2 INHIBITORS” (Bristol-Myers Squibb Company, priority 2021, published 2024)
Where two headings read alike, the source gives them in different places.

Key:
CaMKK2 = CaMKK2 (Homo sapiens, UniProt Q96RR4); assay: CaMKK2 binding assay (LanthaScreen TR-FRET)
Experimental: The ability of test compounds to bind and inhibit the activity of CaMKK2 were determined using a binding assay using LanthaScreent (Thermofisher) detection reagents in a 384-well plate format using the following assay buffer: 50 mM HEPES (pH7.5), 10 mM MgCl2, 1 mM EGTA, and 0.01% Brij-35.
A 10-point serial dilution of inhibitor compound in 0.5% DMSO was added to each well of the plate. The final assay volume in well was 15 uL. […] A ratio was calculated from the 2 readouts and fitted to a 4-parameter fit to determine the binding IC50.

[1] = tested on: phosphorylation of CaMKK2 substrate AMPK at Thr172 in A549 lung carcinoma cells; assay: Cell-based phosphorylation assay (Phospho-AMPK Thr172 HTRF); details: Homo sapiens; for IC50: A549 cells, compounds 4 hours, 3 uM Calcium Ionophore 30 minutes, read-out: Cellular IC50 Phosphorylation; for EC50: A549, read-out: A549 pAMPK MOA EC50
Experimental: Cellular CaMKK2 inhibition by compounds was measured by monitoring the phosphorylation of CaMKK2 substrate AMPK at Thr172 in A549 lung carcinoma cells (ATCC) using CISBIO Phospho-AMPK (Thr172) HTRF kit. A549 cells were plated in 96 well plates at 8000 cells/well in DMEM+10% FBS+1× pen/step+1×NEAA and incubated at 37° C. overnight in a CO2 incubator. Cells were then treated with compounds for 4 hours. After cells were stimulated by 3 uM Calcium Ionophore (Sigma) at 37° C. for 30 minutes, cells were washed and then lysed with cell lysis buffer (CisBio) for 30 minutes. […] Plates were incubated overnight and then read using HTRF mode by BMG PHERAstarFS.

[2] = tested on: A549 lung carcinoma cells; assay: Cell proliferation assay (CellTiter 96 Aqueous); type: cell-based; details: Homo sapiens, compounds 48 hours, read-out: Cellular IC50 Proliferation
Experimental: Proliferation was measured using CellTiter 96 Aqueous Non-Radioactive Cell Proliferation Assay Kit (Promega), which determines the number of viable cells in culture based on quantitation of dehydrogenase enzymes, as an indicator of metabolically active cells. A549 lung carcinoma cells were seeded at 2,000 cells/well in a 96-well tissue culture treated plate in DMEM+10% FBS+1× pen/step+1×NEAA and incubated at 37° C. overnight in a CO2 incubator. Cells were treated with compounds for 48 hours. Then viability was measured using CellTiter 96 Aqueous Non-Radioactive Cell Proliferation Assay Kit (Promega). Detection was performed using Biotek Cytation 5 Cell Imaging Multi Mode plate reader.

CaMKK1 = CaMKK1 (Homo sapiens, UniProt Q8N5S9); assay: CaMKK1 IC50; type: binding
pAMPK in A427 = assay: A427 pAMPK MOA assay; type: cell-based; details: Homo sapiens, A-427
PPB, mouse (m) = type: in vitro ADME; details: plasma, first value of (m, h)
PPB, human (h) = type: in vitro ADME; details: plasma, second value of (m, h)
[3] = Microsomes stability, mouse (m); type: in vitro ADME; details: first value of (m, h)
[4] = Microsomes stability, human (h); type: in vitro ADME; details: second value of (m, h)
PK = details: in vivo; read-out: PK % F
KSP (72) kinases = tested on: KSP (72) kinases; parameters: dose or concentration left out as unconfirmed; details: of 72 kinases

Sequence of CaMKK2 (Q96RR4 whole entry): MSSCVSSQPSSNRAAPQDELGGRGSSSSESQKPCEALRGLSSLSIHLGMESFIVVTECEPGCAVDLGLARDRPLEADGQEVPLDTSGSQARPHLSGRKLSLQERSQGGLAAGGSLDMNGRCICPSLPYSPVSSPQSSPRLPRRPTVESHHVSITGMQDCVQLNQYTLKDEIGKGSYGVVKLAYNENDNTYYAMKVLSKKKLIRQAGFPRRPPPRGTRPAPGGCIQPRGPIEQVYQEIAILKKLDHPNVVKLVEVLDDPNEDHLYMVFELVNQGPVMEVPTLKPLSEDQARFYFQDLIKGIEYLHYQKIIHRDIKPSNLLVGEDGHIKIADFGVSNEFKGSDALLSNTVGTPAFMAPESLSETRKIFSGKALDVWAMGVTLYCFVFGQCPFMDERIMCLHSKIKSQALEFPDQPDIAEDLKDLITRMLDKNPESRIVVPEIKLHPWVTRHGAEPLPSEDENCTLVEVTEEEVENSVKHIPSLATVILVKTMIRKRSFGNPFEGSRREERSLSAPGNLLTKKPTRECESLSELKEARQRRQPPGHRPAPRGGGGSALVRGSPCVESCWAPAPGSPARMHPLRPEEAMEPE
Sequence of CaMKK1 (Q8N5S9 whole entry, species assumed): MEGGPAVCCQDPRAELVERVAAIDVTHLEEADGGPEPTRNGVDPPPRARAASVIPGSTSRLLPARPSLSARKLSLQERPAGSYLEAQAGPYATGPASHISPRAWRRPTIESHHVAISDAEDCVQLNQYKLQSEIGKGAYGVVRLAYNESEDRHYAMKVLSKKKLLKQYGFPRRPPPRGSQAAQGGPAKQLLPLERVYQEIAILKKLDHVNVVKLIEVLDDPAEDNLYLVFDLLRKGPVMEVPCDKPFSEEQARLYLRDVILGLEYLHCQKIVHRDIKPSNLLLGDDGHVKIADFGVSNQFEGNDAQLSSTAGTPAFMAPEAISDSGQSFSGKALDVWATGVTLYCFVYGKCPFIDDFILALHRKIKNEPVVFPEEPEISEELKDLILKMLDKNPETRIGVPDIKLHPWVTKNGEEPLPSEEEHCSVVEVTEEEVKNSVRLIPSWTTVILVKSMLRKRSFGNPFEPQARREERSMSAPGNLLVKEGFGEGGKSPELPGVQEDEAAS

In the case of `O=C(O)c1ccc(-c2ccnc3cn(-c4cccc(C5CC5)c4)nc23)cc1C1CCCC1` [Example 3.4, 2-Cyclopentyl-4-(2-(3-cyclopropylphenyl)-2H-pyrazolo[4,3-b]pyridin-7-yl)benzoic Acid], the IC50 (CaMKK2) is reported as under 100 nM, the IC50 [1] is reported as under 100 nM and the IC50 [2] is reported as over 10000 nM.

For `O=C(O)c1ccc(-c2c(F)cnc3cn(-c4ccc(F)cc4)nc23)cc1C1CCCC1` [Example 3.5, 2-Cyclopentyl-4-(6-fluoro-2-(4-fluorophenyl)-2H-pyrazolo[4,3-b]pyridin-7-yl)benzoic Acid], the IC50 (CaMKK2) was under 100 nM, the IC50 [1] was 100 to 1000 nM and the IC50 [2] was over 10000 nM.

For `O=C(O)c1ccc(-c2ccnc3cn(-c4cccc(Cl)c4)nc23)cc1C1CCCC1` [Example 3.6, 4-(2-(3-Chlorophenyl)-2H-pyrazolo[4,3-b]pyridin-7-yl)-2-cyclopentylbenzoic Acid], the IC50 (CaMKK2) was under 100 nM, the IC50 [1] was 100 to 1000 nM and the IC50 [2] was over 10000 nM.

Work on `Cc1cc(Cl)cc(-n2cc3ncc(F)c(-c4ccc(C(=O)O)c(C5CCCC5)c4)c3n2)c1` [Example 3.7, 4-(2-(3-Chloro-5-methylphenyl)-6-fluoro-2H-pyrazolo[4,3-b]pyridin-7-yl)-2-cyclopentylbenzoic Acid] yielded an IC50 (CaMKK2) of under 100 nM, an IC50 [1] of under 100 nM and an IC50 [2] of over 10000 nM.

Work on `O=C(O)c1ccc(-c2c(F)cnc3cn(-c4cccc(C(F)(F)F)c4)nc23)cc1C1CCCC1` [Example 3.9, 2-Cyclopentyl-4-(6-fluoro-2-(3-(trifluoromethyl)phenyl)-2H-pyrazolo[4,3-b]pyridin-7-yl)benzoic Acid] yielded an IC50 (CaMKK2) of under 100 nM, an IC50 [1] of 100 to 1000 nM and an IC50 [2] of over 10000 nM.

Molecule `O=C(O)c1ccc(-c2c(F)cnc3cn(-c4cc(F)cc(F)c4)nc23)cc1C1CCCC1` [Example 3.12, 2-Cyclopentyl-4-(2-(3,5-difluorophenyl)-6-fluoro-2H-pyrazolo[4,3-b]pyridin-7-yl)benzoic Acid] has an IC50 (CaMKK2) of under 100 nM, an IC50 [1] of 100 to 1000 nM and an IC50 [2] of over 10000 nM.

With `O=C(O)c1ccc(-c2c(F)cnc3cn(-c4cc(Cl)cc(Cl)c4)nc23)cc1C1CCCC1` [Example 3.16, 2-Cyclopentyl-4-(2-(3,5-dichlorophenyl)-6-fluoro-2H-pyrazolo[4,3-b]pyridin-7-yl)benzoic Acid] the IC50 (CaMKK2) was under 100 nM, the IC50 [1] was under 100 nM and the IC50 [2] was over 10000 nM.

In the case of `COc1cc(F)cc(-n2cc3ncc(F)c(-c4ccc(C(=O)O)c(C5CCCC5)c4)c3n2)c1` [Example 3.17, 2-Cyclopentyl-4-(6-fluoro-2-(3-fluoro-5-methoxyphenyl)-2H-pyrazolo[4,3-b]pyridin-7-yl)benzoic Acid], the IC50 (CaMKK2) is reported as under 100 nM, the IC50 [1] is reported as 100 to 1000 nM and the IC50 [2] is reported as over 10000 nM.

In the case of `Cc1cc(OC(F)(F)F)cc(-n2cc3ncc(F)c(-c4ccc(C(=O)O)c(C5CCCC5)c4)c3n2)c1` [Example 3.18, 2-Cyclopentyl-4-(6-fluoro-2-(3-methyl-5-(trifluoromethoxy)phenyl)-2H-pyrazolo[4,3-b]pyridin-7-yl)benzoic Acid], the IC50 (CaMKK2) is reported as under 100 nM, the IC50 [1] is reported as 100 to 1000 nM and the IC50 [2] is reported as over 10000 nM.

Molecule `O=C(O)c1ccc(-c2ccnn3cc(-c4ccccc4)cc23)cc1C1CCCC1` [Example 4.1, 2-Cyclopentyl-4-(6-phenylpyrrolo[1,2-b]pyridazin-4-yl)benzoic Acid] has an IC50 (CaMKK2) of under 100 nM, an IC50 [1] of 100 to 1000 nM and an IC50 [2] of over 10000 nM.

With `CCNc1cc(-n2ccc3ncc(-c4ccccc4)nc32)ccc1C(=O)O` [Example 5, 2-(Ethylamino)-4-(3-phenylpyrrolo[2,3-b]pyrazin-5-yl)benzoic Acid] the IC50 (CaMKK2) was under 100 nM, the IC50 [1] was 100 to 1000 nM and the IC50 [2] was over 10000 nM.

Molecule `CCOc1cc(F)c2c(-c3ccc(C(=O)O)c(C4CCCC4)c3)ncnc2c1` [Example 5.2, 2-cyclopentyl-4-(7-ethoxy-5-fluoroquinazolin-4-yl)benzoic acid] has an IC50 (CaMKK1) of 12 nM.

Molecule `CCOc1ccc2c(-c3ccc(C(=O)O)c(C4CCCC4)c3)ccnc2c1` [Example 5.3, 2-cyclopentyl-4-(7-ethoxyquinolin-4-yl)benzoic acid] has an IC50 (CaMKK2; Table 8) of 1.5 nM, an EC50 [1] of 60 nM and an IC50 (CaMKK1) of 1.7 nM. It also gave an EC50 (pAMPK in A427) of 30 nM, a fraction unbound (PPB, mouse (m)) of under 0.01 and a fraction unbound (PPB, human (h)) of under 0.01. For the same molecule, the “Microsomes (m) CYP/UGT60” value [3] was “CYP/UGT60: 66, %”, the “Microsomes (h) CYP/UGT60” value [4] was 67% and the bioavailability (PK) was 58%. For the same molecule, the “Kinase Selectivity KSP (72)” value (KSP (72) kinases) was 6 of 72 @.

For `CCOc1ccc2c(-c3ccc(C(=O)O)c(C(C)C)c3)c(F)cnc2c1` [Example 5.4, 4-(7-ethoxy-3-fluoroquinolin-4-yl)-2-isopropylbenzoic acid], the IC50 (CaMKK2; Table 8) was 1.1 nM, the EC50 [1] was 79 nM and the IC50 (CaMKK1) was 1.7 nM. For the same molecule, the “Kinase Selectivity KSP (72)” value (KSP (72) kinases) was 6 of 72 @.

`O=C(O)c1ccc(-n2ccc3ncc(-c4ccccc4)nc32)cc1NCC1CC1` [Example 6, 2-((Cyclopropylmethyl)amino)-4-(3-phenyl-5H-pyrrolo[2,3-b]pyrazin-5-yl)benzoic Acid] showed an IC50 (CaMKK2) of under 100 nM, an IC50 [1] of 100 to 1000 nM and an IC50 [2] of over 10000 nM.

`O=C(O)c1ccc(-n2ccc3ncc(-c4ccccc4)nc32)cc1NC1CCCC1` [Example 7, 2-(Cyclopentylamino)-4-(3-phenyl-5H-pyrrolo[2,3-b]pyrazin-5-yl)benzoic Acid] gave an IC50 (CaMKK2) of under 100 nM, an IC50 [1] of 1000 to 10000 nM and an IC50 [2] of over 10000 nM.

In the case of `CCNc1cc(-n2ccc3ncc(-c4ccc(F)cc4F)nc32)ccc1C(=O)O` [Example 9, 4-(3-(2,4-Difluorophenyl)-5H-pyrrolo[2,3-b]pyrazin-5-yl)-2-(ethylamino)benzoic Acid], the IC50 (CaMKK2) is reported as under 100 nM, the IC50 [1] is reported as 100 to 1000 nM and the IC50 [2] is reported as over 10000 nM.

Molecule `Cn1cc2cc(-c3cnc4ccn(-c5ccc(C(=O)O)c(NCC6CC6)c5)c4n3)ccc2n1` [Example 12, 2-(Cyclopropylmethylamino)-4-(3-(2-methyl-2H-indazol-5-yl)-5H-pyrrolo[2,3-b]pyrazin-5-yl)benzoic Acid] has an IC50 (CaMKK2) of under 100 nM, an IC50 [1] of 100 to 1000 nM and an IC50 [2] of over 10000 nM.

In the case of `CCNc1cc(-n2ccc3ncc(-c4ccc5nn(C)cc5c4)nc32)ccc1C(=O)O` [Example 13, 2-(Ethylamino)-4-(3-(2-methyl-2H-indazol-5-yl)-5H-pyrrolo[2,3-b]pyrazin-5-yl)benzoic Acid], the IC50 (CaMKK2) is reported as under 100 nM, the IC50 [1] is reported as 100 to 1000 nM and the IC50 [2] is reported as over 10000 nM.

In the case of `O=C(O)c1ccc(-n2ccc3ncc(C4CC4)nc32)cc1C1CCCC1` [Example 18, 2-Cyclopentyl-4-(3-cyclopropyl-5H-pyrrolo[2,3-b]pyrazin-5-yl)benzoic Acid], the IC50 (CaMKK2) is reported as under 100 nM, the IC50 [1] is reported as 100 to 1000 nM and the IC50 [2] is reported as over 10000 nM.

`N#CNC(=O)c1ccc(-n2ccc3ncc(C4CC4)nc32)cc1C1CCCC1` [Example 19, N-Cyano-2-cyclopentyl-4-(3-cyclopropyl-5H-pyrrolo[2,3-b]pyrazin-5-yl)benzamide] gave an IC50 (CaMKK2) of under 100 nM, an IC50 [1] of 1000 to 10000 nM and an IC50 [2] of over 10000 nM.

For `c1cc(-c2nn[nH]n2)c(C2CCCC2)cc1-n1ccc2ncc(C3CC3)nc21` [Example 20, 5-(3-cyclopentyl-4-(2H-tetrazol-5-yl)phenyl)-3-cyclopropyl-5H-pyrrolo[2,3-b]pyrazine], the IC50 (CaMKK2) was under 100 nM, the IC50 [1] was over 10000 nM and the IC50 [2] was over 10000 nM.

For `Cc1cc(C)cc(-c2cnc3ccn(-c4ccc(C(=O)O)c(OC5CNC5)c4)c3n2)c1` [Example 24, 2-(azetidin-3-yloxy)-4-(3-(3,5-dimethylphenyl)-5H-pyrrolo[2,3-b]pyrazin-5-yl)benzoic Acid], the IC50 (CaMKK2) was 100 to 1000 nM, the IC50 [1] was under 100 nM and the IC50 [2] was over 10000 nM.
